Assay results reported in US20250332178A1, “METHODS OF TREATING MYCOBACTERIAL INFECTIONS USING TETRACYCLINE COMPOUNDS” (priority 2018, published 2025).
Values after ≈ are worked out from the molar mass of the structure shown. Where two headings read alike, the source gives them in different places.

Columns and labels:
Assay in all cases: MIC (CLSI broth dilution), RGM isolates
Format in all cases: cell-based
M. abscessus complex = conditions: Mycobacteroides abscessus, initial reading, generally 3-4 days, read-out: MIC, CLA Initial
M. chelonae = conditions: Mycobacteroides chelonae
M. smegmatis group = conditions: Mycolicibacterium smegmatis
M. fortuitum group = conditions: Mycolicibacterium fortuitum

## CC[C@H]1OC(=O)[C@H](C)[C@@H](O[C@H]2C[C@@](C)(OC)[C@@H](O)[C@H](C)O2)[C@H](C)[C@@H](O[C@@H]2O[C@H](C)C[C@H](N(C)C)[C@H]2O)[C@](C)(OC)C[C@@H](C)C(=O)[C@H](C)[C@@H](O)[C@]1(C)O [clarithromycin]
M. abscessus complex; isolate 4, massiliense
  MIC: 0.12 µg/mL (≈ 0.16 µM)
M. abscessus complex; isolate 5, massiliense/subsp. abs hybrid
  MIC: ≤ 0.06 µg/mL
M. abscessus complex; isolate 6, Type 1 abscessus
  MIC: 0.25 µg/mL (≈ 0.334 µM)
M. abscessus complex; isolate 7, Type 1 abscessus
  MIC: 0.12 µg/mL (≈ 0.16 µM)
M. abscessus complex; isolate 8, Type 1 abscessus
  MIC: 0.12 µg/mL (≈ 0.16 µM)
M. abscessus complex; isolate 9, Type 1 abscessus
  MIC: 2 µg/mL (≈ 2.67 µM)
M. abscessus complex; isolate 10, Type 1 abscessus
  MIC: 0.25 µg/mL (≈ 0.334 µM)
M. abscessus complex; isolate 11, Type 6 abscessus
  MIC: 0.12 µg/mL (≈ 0.16 µM)
M. abscessus complex; isolate 12, Type 6 abscessus
  MIC: 0.25 µg/mL (≈ 0.334 µM)
M. abscessus complex; isolate 13, Type 6 abscessus
  MIC: 0.25 µg/mL (≈ 0.334 µM)
M. abscessus complex; isolate 14, Type 6 abscessus
  MIC: ≤ 0.06 µg/mL
M. abscessus complex; isolate 15, Type 7 abscessus
  MIC: 0.5 µg/mL (≈ 0.668 µM)
M. abscessus complex; isolate 16, Type 7 abscessus
  MIC: ≤ 0.06 µg/mL
M. abscessus complex; isolate 17, Type 8 abscessus
  MIC: 0.25 µg/mL (≈ 0.334 µM)
M. chelonae; 336 h, isolate 18, M. chelonae, extended reading, up to/including 14 days, read-out: MIC, CLA Extended
  MIC: 2 µg/mL (≈ 2.67 µM)
M. chelonae; 336 h, isolate 19, M. chelonae, extended reading, up to/including 14 days, read-out: MIC, CLA Extended
  MIC: 0.5 µg/mL (≈ 0.668 µM)
M. chelonae; 336 h, isolate 20, M. chelonae, extended reading, up to/including 14 days, read-out: MIC, CLA Extended
  MIC: 0.5 µg/mL (≈ 0.668 µM)
M. chelonae; 336 h, isolate 21, M. chelonae, extended reading, up to/including 14 days, read-out: MIC, CLA Extended
  MIC: 2 µg/mL (≈ 2.67 µM)
M. chelonae; 336 h, isolate 22, M. chelonae, extended reading, up to/including 14 days, read-out: MIC, CLA Extended
  MIC: 2 µg/mL (≈ 2.67 µM)
M. chelonae; isolate 18, M. chelonae, initial reading, generally 3-4 days, read-out: MIC, CLA Initial
  MIC: 0.25 µg/mL (≈ 0.334 µM)
M. chelonae; isolate 19, M. chelonae, initial reading, generally 3-4 days, read-out: MIC, CLA Initial
  MIC: 0.25 µg/mL (≈ 0.334 µM)
M. chelonae; isolate 20, M. chelonae, initial reading, generally 3-4 days, read-out: MIC, CLA Initial
  MIC: 0.5 µg/mL (≈ 0.668 µM)
M. chelonae; isolate 21, M. chelonae, initial reading, generally 3-4 days, read-out: MIC, CLA Initial
  MIC: 0.5 µg/mL (≈ 0.668 µM)
M. chelonae; isolate 22, M. chelonae, initial reading, generally 3-4 days, read-out: MIC, CLA Initial
  MIC: 1 µg/mL (≈ 1.34 µM)
M. smegmatis group; 144 h, isolate 49, M. goodii, extended reading (6 d), read-out: MIC, CLA Extended
  MIC: > 32 µg/mL
M. smegmatis group; isolate 49, M. goodii, initial reading, generally 3-4 days, read-out: MIC, CLA Initial
  MIC: 16 µg/mL (≈ 21.4 µM)
M. smegmatis group; isolate 50, M. wolinskyi, initial reading, generally 3-4 days, read-out: MIC, CLA Initial
  MIC: > 32 µg/mL
M. fortuitum group; 168 h, isolate 23, M. fortuitum, extended reading (7 d), read-out: MIC, CLA Extended
  MIC: > 32 µg/mL
M. fortuitum group; 168 h, isolate 25, M. fortuitum, extended reading (7 d), read-out: MIC, CLA Extended
  MIC: > 32 µg/mL
M. fortuitum group; 168 h, isolate 29, M. porcinum/M. boenickei, extended reading (7 d), read-out: MIC, CLA Extended
  MIC: > 32 µg/mL
M. fortuitum group; 240 h, isolate 24, M. fortuitum, extended reading (10 d), read-out: MIC, CLA Extended
  MIC: > 32 µg/mL
M. fortuitum group; 240 h, isolate 27, M. porcinum, extended reading (10 d), read-out: MIC, CLA Extended
  MIC: > 32 µg/mL
M. fortuitum group; 240 h, isolate 28, M. porcinum/M. boenickei, extended reading (10 d), read-out: MIC, CLA Extended
  MIC: > 32 µg/mL
M. fortuitum group; 336 h, isolate 26, M. porcinum, extended reading, up to/including 14 days, read-out: MIC, CLA Extended
  MIC: > 32 µg/mL
M. fortuitum group; 336 h, isolate 30, M. porcinum/M. boenickei, extended reading, up to/including 14 days, read-out: MIC, CLA Extended
  MIC: > 32 µg/mL
M. fortuitum group; 336 h, isolate 31, M. senegalense, extended reading, up to/including 14 days, read-out: MIC, CLA Extended
  MIC: 0.5 µg/mL (≈ 0.668 µM)
M. fortuitum group; 336 h, isolate 32, M. senegalense, extended reading, up to/including 14 days, read-out: MIC, CLA Extended
  MIC: 0.5 µg/mL (≈ 0.668 µM)
M. fortuitum group; 336 h, isolate 33, M. senegalense, extended reading, up to/including 14 days, read-out: MIC, CLA Extended
  MIC: 1 µg/mL (≈ 1.34 µM)
M. fortuitum group; 336 h, isolate 34, M. senegalense, extended reading, up to/including 14 days, read-out: MIC, CLA Extended
  MIC: 1 µg/mL (≈ 1.34 µM)
M. fortuitum group; isolate 23, M. fortuitum, initial reading, generally 3-4 days, read-out: MIC, CLA Initial
  MIC: 1 µg/mL (≈ 1.34 µM)
M. fortuitum group; isolate 24, M. fortuitum, initial reading, generally 3-4 days, read-out: MIC, CLA Initial
  MIC: 0.5 µg/mL (≈ 0.668 µM)
M. fortuitum group; isolate 25, M. fortuitum, initial reading, generally 3-4 days, read-out: MIC, CLA Initial
  MIC: 2 µg/mL (≈ 2.67 µM)
M. fortuitum group; isolate 26, M. porcinum, initial reading, generally 3-4 days, read-out: MIC, CLA Initial
  MIC: 0.5 µg/mL (≈ 0.668 µM)
M. fortuitum group; isolate 27, M. porcinum, initial reading, generally 3-4 days, read-out: MIC, CLA Initial
  MIC: 2 µg/mL (≈ 2.67 µM)
M. fortuitum group; isolate 28, M. porcinum/M. boenickei, initial reading, generally 3-4 days, read-out: MIC, CLA Initial
  MIC: 8 µg/mL (≈ 10.7 µM)
M. fortuitum group; isolate 29, M. porcinum/M. boenickei, initial reading, generally 3-4 days, read-out: MIC, CLA Initial
  MIC: 4 µg/mL (≈ 5.35 µM)
M. fortuitum group; isolate 30, M. porcinum/M. boenickei, initial reading, generally 3-4 days, read-out: MIC, CLA Initial
  MIC: 1 µg/mL (≈ 1.34 µM)
M. fortuitum group; isolate 31, M. senegalense, initial reading, generally 3-4 days, read-out: MIC, CLA Initial
  MIC: 0.12 µg/mL (≈ 0.16 µM)
M. fortuitum group; isolate 32, M. senegalense, initial reading, generally 3-4 days, read-out: MIC, CLA Initial
  MIC: 0.12 µg/mL (≈ 0.16 µM)
M. fortuitum group; isolate 33, M. senegalense, initial reading, generally 3-4 days, read-out: MIC, CLA Initial
  MIC: 0.12 µg/mL (≈ 0.16 µM)
M. fortuitum group; isolate 34, M. senegalense, initial reading, generally 3-4 days, read-out: MIC, CLA Initial
  MIC: ≤ 0.06 µg/mL
